Entries after “also recorded” stand apart in the source; their conditions may differ.
Experiments:
[1] = tested on: A549 xenograft; assay: Human tumor xenograft model, tumor growth; format: in vivo; settings: nude mice, p.o. twice daily
Experimental: (§1) The mice were housed and maintained under specific-pathogen free (SPF) conditions. All animal procedures were performed according to the protocol approved by the Institutional Animal Care and Use Committee at Shanghai Institute of Materia Medica, Chinese Academy of Sciences (SIMM-AE-DJ-2010-01). Under sterile conditions, well-developed tumors were cut into 1-mm^3 fragments and transplanted s.c. into the right flank of nude mice using a trocar. When the tumor reached a volume reached 100 to 200 mm^3, the mice were randomly assigned into control and treatment groups. […] The sizes of the tumors were measured twice per week using microcalipers. The tumor volume (V) was calculated as follows: V = (length×width^2)/2. The body weights of the mice were observed simultaneously.

[2] = tested on: Calu-3 xenograft; assay: Human tumor xenograft model, tumor growth; format: in vivo; settings: nude mice, p.o. twice daily
Experimental: as §1

[3] = tested on: HO-8910 xenograft; assay: Human tumor xenograft model, tumor growth; format: in vivo; settings: nude mice, p.o. twice daily
Experimental: as §1

[4] = tested on: SK-OV-3 xenograft; assay: Human tumor xenograft model, tumor growth; format: in vivo; settings: nude mice, p.o. twice daily
Experimental: as §1

[5] = Pharmacokinetics after single oral dose; settings: dog, in vivo; dogs, single oral dose 90 mg/kg; unpublished data
[6] = biological target: EGFR (Homo sapiens, UniProt P00533); assay: Rapid dilution irreversibility experiment; format: biochemical; set-up: The kinase domain of EGFR, ErbB-2, IGF1R, VEGFR2, FGFR1, PDGFRα, c-Src, c-Met, RON, c-Kit, EphA2 and EphB2 were expressed; made in house; settings: preincubated 30 min at 100-fold IC50, diluted 100-fold, sampled 180 minutes
EGFR, sequence (P00533 712-979 limits assumed): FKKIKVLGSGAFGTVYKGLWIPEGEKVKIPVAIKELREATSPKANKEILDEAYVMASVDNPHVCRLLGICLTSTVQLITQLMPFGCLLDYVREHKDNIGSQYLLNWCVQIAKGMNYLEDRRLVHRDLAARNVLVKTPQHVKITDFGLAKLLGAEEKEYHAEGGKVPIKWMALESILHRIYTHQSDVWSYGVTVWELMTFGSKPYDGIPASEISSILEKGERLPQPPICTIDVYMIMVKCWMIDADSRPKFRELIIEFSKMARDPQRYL
Experimental: (§2) The microplate was placed in the EZ Reader (Caliper Life Sciences, MA) and wells were repeatedly sampled for 180 minutes.
(§3) To verify this, we determined the reversibility of EGFR and ErbB2 binding using a dilution method. […] After incubating, the enzyme/inhibitor mixture is diluted 100-fold (i.e., to normal reaction conditions), reaction buffer plus ATP and substrate are added, and receptor kinase activity is measured continuously. In general, a reversible inhibitor dissociates quickly, allowing immediate recovery of enzymatic activity, whereas a slowly reversible inhibitor allows a gradual increase in activity. In contrast, an irreversible inhibitor prevents recovery of enzymatic activity.

[7] = biological target: ErbB2 (Homo sapiens, UniProt P04626); assay: Rapid dilution irreversibility experiment; format: biochemical; set-up: The kinase domain of EGFR, ErbB-2, IGF1R, VEGFR2, FGFR1, PDGFRα, c-Src, c-Met, RON, c-Kit, EphA2 and EphB2 were expressed; made in house; settings: preincubated 30 min at 100-fold IC50, diluted 100-fold, sampled 180 minutes
ErbB2, sequence (P04626 720-987 limits assumed): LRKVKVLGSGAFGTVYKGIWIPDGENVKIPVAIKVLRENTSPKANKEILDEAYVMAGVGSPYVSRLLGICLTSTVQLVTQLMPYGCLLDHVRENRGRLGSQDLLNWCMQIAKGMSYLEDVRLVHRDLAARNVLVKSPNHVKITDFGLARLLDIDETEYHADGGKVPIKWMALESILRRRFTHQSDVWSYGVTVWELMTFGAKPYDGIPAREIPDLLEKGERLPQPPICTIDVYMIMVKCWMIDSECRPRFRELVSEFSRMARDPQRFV
Experimental: as §2, §3

SMILES: C=CC(=O)Nc1ccc2ncnc(Nc3ccc(OCc4cccc(F)c4)c(Cl)c3)c2c1 [AST1306]
- tumor growth [1]: only slightly suppressed tumor growth
- tumor growth [2]: dramatic suppression of tumor growth
- tumor growth [3]: only slightly suppressed tumor growth
- tumor growth [4]: dramatic suppression of tumor growth; also recorded: more efficacious than lapatinib
- tumors after treatment for 7 d ([4]; 7 d): tumors almost completely disappeared
- half-life [5]: < 2.3 h
- recovery of EGFR enzymatic activity after dilution [6]: virtually no EGFR or ErbB2 activity was recovered
- recovery of ErbB2 enzymatic activity after dilution [7]: virtually no EGFR or ErbB2 activity was recovered

— paper PMC3138742 (PLoS ONE, 2011)
